Data: patent US12503438B2, “Compounds for the treatment of kinase-dependent disorders” (Exelixis, Inc., priority 2019, dated 2025)

Experiments:
Human Axl = target: T1, Human Axl (Homo sapiens, UniProt P30530, Q764R); test: Human AXL kinase assay (33P-phosphoryl transfer radiometric, KinaseProfiler); conditions: biochemical activity; 10 μM ATP
T1 construct: Human Axl (residues H473-A894 with Q764R, 161 nM); purchased Eurofins Pharma Discovery Services UK Limited (KinaseProfiler service)
T1 sequence (P30530 473-894 Q764R): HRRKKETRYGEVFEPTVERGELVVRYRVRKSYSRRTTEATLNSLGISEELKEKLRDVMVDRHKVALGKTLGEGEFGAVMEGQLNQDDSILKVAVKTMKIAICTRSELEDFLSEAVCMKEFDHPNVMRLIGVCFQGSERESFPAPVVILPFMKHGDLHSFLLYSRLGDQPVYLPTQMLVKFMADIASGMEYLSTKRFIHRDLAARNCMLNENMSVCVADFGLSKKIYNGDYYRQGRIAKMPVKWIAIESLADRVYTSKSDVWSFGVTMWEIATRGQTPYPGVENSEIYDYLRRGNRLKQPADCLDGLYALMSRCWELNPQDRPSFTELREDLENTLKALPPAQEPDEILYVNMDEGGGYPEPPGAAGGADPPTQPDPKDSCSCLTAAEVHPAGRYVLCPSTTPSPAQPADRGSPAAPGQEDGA

Mer = target: T2, Mer (Homo sapiens, UniProt Q12866); test: Mer autophosphorylation ELISA in transient transfected 293A cells; assay type: cell-based; conditions: cellular activity; MERTK-transfected 293A cells, phospho-Mer ELISA
T2 construct: host or cells: 293A cells (Thermo Fisher #R70507)
T2 sequence (Q12866 21-999): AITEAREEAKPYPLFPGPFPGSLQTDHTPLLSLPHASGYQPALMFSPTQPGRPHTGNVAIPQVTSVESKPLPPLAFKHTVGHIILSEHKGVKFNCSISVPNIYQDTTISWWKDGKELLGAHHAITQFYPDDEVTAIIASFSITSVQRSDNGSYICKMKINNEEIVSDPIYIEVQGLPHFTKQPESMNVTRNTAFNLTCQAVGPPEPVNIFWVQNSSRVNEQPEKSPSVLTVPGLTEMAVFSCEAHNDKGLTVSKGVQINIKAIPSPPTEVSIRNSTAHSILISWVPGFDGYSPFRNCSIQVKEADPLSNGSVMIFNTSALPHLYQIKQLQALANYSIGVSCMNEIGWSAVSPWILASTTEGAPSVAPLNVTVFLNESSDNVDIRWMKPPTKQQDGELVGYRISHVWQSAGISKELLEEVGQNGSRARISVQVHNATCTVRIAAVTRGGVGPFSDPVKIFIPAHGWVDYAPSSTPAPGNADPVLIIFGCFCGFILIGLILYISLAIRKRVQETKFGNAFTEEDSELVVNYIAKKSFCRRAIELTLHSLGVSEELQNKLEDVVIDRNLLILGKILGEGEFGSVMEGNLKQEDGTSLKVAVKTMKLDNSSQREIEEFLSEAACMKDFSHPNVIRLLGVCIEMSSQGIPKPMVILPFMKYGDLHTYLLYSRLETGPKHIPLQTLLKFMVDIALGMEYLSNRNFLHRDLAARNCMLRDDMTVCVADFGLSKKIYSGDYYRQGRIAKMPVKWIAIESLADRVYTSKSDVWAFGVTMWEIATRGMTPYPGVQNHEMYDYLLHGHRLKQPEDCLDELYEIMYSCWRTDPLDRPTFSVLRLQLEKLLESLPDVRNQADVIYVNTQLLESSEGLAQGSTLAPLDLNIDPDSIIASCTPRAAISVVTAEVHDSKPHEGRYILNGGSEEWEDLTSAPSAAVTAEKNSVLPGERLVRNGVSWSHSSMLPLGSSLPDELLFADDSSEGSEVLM
In short: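 293A cells transiently transfected with human MERTK DNA, then treated 1 h with 8-point compound dilutions in serum-free medium (0.3% DMSO). Phospho-Mer in lysates quantified by sandwich ELISA against phospho-Mer standard; normalised to DMSO (100%) and reference inhibitor (0%), IC50 from 4-parameter logistic fit.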

SMILES	IC50 (Human Axl) [nM]	IC50 (Mer) [nM]
Cn1ccnc1-c1ccc2c(Oc3ccc(NC(=O)C4(C(=O)Nc5ccc(F)cc5)CC4)cc3)ccnc2c1 [Compound 75, 1-N′-(4-Fluorophenyl)-1-N-[4-[7-(1-methylimidazol-2-yl)quinolin-4-yl]oxyphenyl]cyclopropane-1,1-dicarboxamide]	10 to 100	10 to 100
COc1cc2c(Oc3ccc(NC(=O)C4(C(=O)Nc5ccc(F)cc5)CC4)cc3)ccnc2cc1-c1cnn(C)c1 [Compound 76, 1-N′-(4-Fluorophenyl)-1-N-[4-[6-methoxy-7-(1-methylpyrazol-4-yl)quinolin-4-yl]oxyphenyl]cyclopropane-1,1-dicarboxamide]	≤ 10	≤ 10
CNC(=O)c1cc2c(Oc3ccc(NC(=O)C4(C(=O)Nc5ccc(F)cc5)CC4)cc3)ccnc2cc1-c1cnn(C)c1 [Compound 77, 1-N′-(4-Fluorophenyl)-1-N-[4-[6-(methylcarbamoyl)-7-(1-methylpyrazol-4-yl)quinolin-4-yl]oxyphenyl]cyclopropane-1,1-dicarboxamide]	10 to 100	10 to 100
Cc1cc2c(Oc3ccc(NC(=O)C4(C(=O)Nc5ccc(F)cc5)CC4)cc3)ccnc2cc1-c1cnn(C)c1 [Compound 78, 1-N′-(4-Fluorophenyl)-1-N-[4-[6-methyl-7-(1-methylpyrazol-4-yl)quinolin-4-yl]oxyphenyl]cyclopropane-1,1-dicarboxamide]	≤ 10	10 to 100
CS(=O)(=O)n1cc(-c2ccc3c(Oc4ccc(NC(=O)C5(C(=O)Nc6ccc(F)cc6)CC5)cc4)ccnc3c2)cn1 [Compound 79, 1-N′-(4-Fluorophenyl)-1-N-[4-[7-(1-methylsulfonylpyrazol-4-yl)quinolin-4-yl]oxyphenyl]cyclopropane-1,1-dicarboxamide]	≤ 10	10 to 100
CC1Cc2cc(F)ccc2N1C(=O)C1(C(=O)Nc2ccc(Oc3ccnc4cc(-c5cnn(C)c5)ccc34)cc2)CC1 (stereo not drawn) [Compound 80, 1-(5-Fluoro-2-methyl-2,3-dihydroindole-1-carbonyl)-N-[4-[7-(1-methylpyrazol-4-yl)quinolin-4-yl]oxyphenyl]cyclopropane-1-carboxamide]	10 to 100	> 300
Cn1cc(-c2ccc3c(Oc4ccc(NC(=O)C5(C(=O)N6CCc7cc(F)ccc76)CC5)cc4)ccnc3c2)cn1 [Compound 81, 1-(5-Fluoro-2,3-dihydroindole-1-carbonyl)-N-[4-[7-(1-methylpyrazol-4-yl)quinolin-4-yl]oxyphenyl]cyclopropane-1-carboxamide]	≤ 10	100 to 300
Cc1cc(F)cc(C)c1NC(=O)C1(C(=O)Nc2ccc(Oc3ccnc4cc(-c5cnn(C)c5)ccc34)cc2)CC1 [Compound 82, 1-N′-(4-Fluoro-2,6-dimethylphenyl)-1-N-[4-[7-(1-methylpyrazol-4-yl)quinolin-4-yl]oxyphenyl]cyclopropane-1,1-dicarboxamide]	10 to 100	10 to 100
O=C(Nc1ccc(F)cc1)C1(C(=O)Nc2ccc(Oc3ccnc4cc(-c5ccn(C(F)F)n5)ccc34)cc2)CC1 [Compound 84, 1-N-[4-[7-[1-(Difluoromethyl)pyrazol-3-yl]quinolin-4-yl]oxyphenyl]-1-N′-(4-fluorophenyl)cyclopropane-1,1-dicarboxamide]	10 to 100	10 to 100
O=C(Nc1ccc(F)cc1)C1(C(=O)Nc2ccc(Oc3ccnc4cc(-c5ccccn5)ccc34)cc2)CC1 [Compound 85, 1-N′-(4-Fluorophenyl)-1-N-[4-(7-pyridin-2-ylquinolin-4-yl)oxyphenyl]cyclopropane-1,1-dicarboxamide]	10 to 100	10 to 100

Next, values leading:

IC50 (Human Axl) [nM]	IC50 (Mer) [nM]	SMILES
≤ 10	≤ 10	O=C(Nc1ccc(F)cc1)C1(C(=O)Nc2ccc(Oc3ccnc4cc(-c5cnc[nH]5)ccc34)cc2)CC1 [Compound 72, 1-N′-(4-Fluorophenyl)-1-N-[4-[7-(1H-imidazol-5-yl)quinolin-4-yl]oxyphenyl]cyclopropane-1,1-dicarboxamide]
10 to 100	10 to 100	O=C(Nc1ccc(F)cc1)C1(C(=O)Nc2ccc(Oc3ccnc4cc(-c5nnco5)ccc34)cc2)CC1 [Compound 73, 1-N′-(4-Fluorophenyl)-1-N-[4-[7-(1,3,4-oxadiazol-2-yl)quinolin-4-yl]oxyphenyl]cyclopropane-1,1-dicarboxamide]
≤ 10	10 to 100	O=C(Nc1ccc(F)cc1)C1(C(=O)Nc2ccc(Oc3ccnc4cc(-c5ncc[nH]5)ccc34)cc2)CC1 [Compound 74, 1-N′-(4-Fluorophenyl)-1-N-[4-[7-(1H-imidazol-2-yl)quinolin-4-yl]oxyphenyl]cyclopropane-1,1-dicarboxamide]
10 to 100	100 to 300	O=C(Nc1ccc(F)cc1)C1(C(=O)Nc2ccc(Oc3ccnc4cc(C5CCNC5)ccc34)cc2)CC1 (stereo not drawn) [Compound 83, 1-N′-(4-Fluorophenyl)-1-N-[4-(7-pyrrolidin-3-ylquinolin-4-yl)oxyphenyl]cyclopropane-1,1-dicarboxamide]
≤ 10	10 to 100	Cn1ncc(-c2ccc3c(Oc4ccc(NC(=O)C5(C(=O)Nc6ccc(F)cc6)CC5)cc4)ccnc3c2)n1 [Compound 86, 1-N′-(4-Fluorophenyl)-1-N-[4-[7-(2-methyltriazol-4-yl)quinolin-4-yl]oxyphenyl]cyclopropane-1,1-dicarboxamide]
